The molecules below were run on Aspergillus brasiliensis (ATCC 16404) (assay: Evaluation test for microbicidal effect, suspension test EN 13624:2013 (clean conditions)). Conditions: equal molar amount instead of glycine in the formula of Example 1-1.
Assay type: cell-based
In the case of `CC(=O)O` [acetic acid], the “enhancement of the microbicidal activity of the acidic oxidant of peracetic acid and hydrogen peroxide (in words)” value (“enhancement” below) is reported as “could not enhance the microbicidal activity”. `O=P([O-])([O-])O.[K+].[K+]` [dipotassium hydrogen phosphate] was tested, and the “enhancement” value was “could not enhance the microbicidal activity”. In the case of `O=P([O-])([O-])[O-].[Na+].[Na+].[Na+]` [trisodium phosphate], the “enhancement” value is reported as “could not enhance the microbicidal activity”.
